Key:
primary cortical neurons = experiment: LDH release of primary cortical neurons subjected to oxygen glucose deprivation (OGD); type: cell-based, mouse; settings: comparison with F4; concentration not given
Procedure: Lactate dehydrogenase is a stable cytosolic enzyme that is released by necrotic cells upon membrane damage. The membrane integrity of cortical neurons was assayed by measuring the release of lactate dehydrogenase (LDH) using the Cytotoxicity Detection Kit^PLUS (Roche Applied Science). This assay kit detects LDH released into culture supernates by a coupled enzymatic reaction. Positive (100% LDH release) and negative (spontaneous LDH release) controls were prepared in triplicate according to the manufacturer's instructions. Primary cortical neuron cultures were prepared from cerebral cortices of embryonic day 16 CD1 mouse embryos. Cortical neuron cultures were exposed to vehicle (0.1% dimethyl sulfoxide (DMSO)) or F4 at concentrations of 1, 0.1 or 0.01 μg/mL in serum-free conditions for a period of 12 h before they were subjected to oxygen glucose deprivation (OGD). The neurons were exposed to vehicle or F4 at concentrations of 1, 0.1 or 0.01 μg/mL phenolics throughout the 12 h period of OGD. Following, cell culture supernates were collected for determination of released LDH. Absorbance was measured at 490 nm with a reference wavelength of 620 nm. Percentage of total LDH release was calculated by following the instructions provided by the manufacturer. Background was subtracted and LDH release in each sample was expressed as a percentage of the positive control.

[1] = humans, 1 g per day for 1 month; cited from earlier work

SMILES | reduction of death of primary cortical neurons subjected to OGD (F4 components and metabolites, FIG. 7) (primary cortical neurons) | safety [1]
O=c1c(O[C@@H]2O[C@H](CO)[C@@H](O)[C@H](O)[C@H]2O)c(-c2ccc(O)c(O)c2)oc2cc(O)cc(O)c12 [Fraction Q3G, quercetin 3-O-glucoside] | no significant reduction | 
COc1cc(-c2oc3cc(O)cc(O)c3c(=O)c2O[C@@H]2O[C@H](C(=O)O)[C@@H](O)[C@H](O)[C@H]2O)ccc1O [IR3GlcA] | no significant reduction | 
O=c1c(O)c(-c2ccc(O)c(O)c2)oc2cc(O)cc(O)c12 [Q, Quercetin] | no significant reduction | safe

Reference: US9511107B2, “Phenolic compositions derived from apple skin and uses thereof” (priority 2010, dated 2016)
